According to ChEMBL document CHEMBL1255475, “Mutant prevention concentrations of four carbapenems against gram-negative rods” (2010):
In brackets after ≈: the same amount, converted by molar mass.

Assays:
Klebsiella pneumoniae [1] = experiment: Ratio of mutant prevention concentration to minimum Inhibitory concentration for beta-lactamase-positive ESBL-negative Klebsiella pneumoniae E477; format: functional
Escherichia coli [2] = experiment: Ratio of mutant prevention concentration to minimum Inhibitory concentration for beta-lactamase-negative Escherichia coli E350; format: functional
Escherichia coli [3] = experiment: Antibacterial activity against beta-lactamase-negative Escherichia coli E408 incubated up to 7 days by agar dilution method; format: functional; details: E408, 168 h
Escherichia coli [4] = experiment: Ratio of mutant prevention concentration to minimum Inhibitory concentration for beta-lactamase-positive ESBL-positive Escherichia coli E459; format: functional
Escherichia coli [5] = experiment: Ratio of mutant prevention concentration to minimum Inhibitory concentration for beta-lactamase-negative Escherichia coli E347; format: functional
Klebsiella pneumoniae [6] = experiment: Ratio of mutant prevention concentration to minimum Inhibitory concentration for beta-lactamase-negative Klebsiella pneumoniae E362; format: functional
Klebsiella pneumoniae [7] = experiment: Ratio of mutant prevention concentration to minimum Inhibitory concentration for beta-lactamase-positive ESBL-positive Klebsiella pneumoniae E475; format: functional
Escherichia coli [8] = experiment: Ratio of mutant prevention concentration to minimum Inhibitory concentration for beta-lactamase-positive ESBL-positive Escherichia coli E465; format: functional
Escherichia coli [9] = experiment: Antibacterial activity against beta-lactamase-negative Escherichia coli E424 assessed as mutant prevention concentration after overnight incubation; format: functional
Klebsiella pneumoniae [10] = experiment: Antibacterial activity against beta-lactamase-positive ESBL-negative Klebsiella pneumoniae E509 incubated up to 7 days by agar dilution method; format: functional; details: E509, 168 h
Escherichia coli [11] = experiment: Ratio of mutant prevention concentration to minimum Inhibitory concentration for beta-lactamase-negative Escherichia coli E409; format: functional
Escherichia coli [12] = experiment: Ratio of mutant prevention concentration to minimum Inhibitory concentration for beta-lactamase-negative Escherichia coli E346; format: functional
Klebsiella pneumoniae [13] = experiment: Ratio of mutant prevention concentration to minimum Inhibitory concentration for beta-lactamase-negative Klebsiella pneumoniae E360; format: functional
Escherichia coli [14] = experiment: Ratio of mutant prevention concentration to minimum Inhibitory concentration for beta-lactamase-positive ESBL-negative Escherichia coli E412; format: functional
Klebsiella pneumoniae [15] = experiment: Ratio of mutant prevention concentration to minimum Inhibitory concentration for beta-lactamase-positive ESBL-negative Klebsiella pneumoniae E480; format: functional
Klebsiella pneumoniae [16] = experiment: Ratio of mutant prevention concentration to minimum Inhibitory concentration for beta-lactamase-positive ESBL-negative Klebsiella pneumoniae E509; format: functional
Klebsiella pneumoniae [17] = experiment: Ratio of mutant prevention concentration to minimum Inhibitory concentration for beta-lactamase-positive ESBL-negative Klebsiella pneumoniae E479; format: functional
Escherichia coli [18] = experiment: Ratio of mutant prevention concentration to minimum Inhibitory concentration for beta-lactamase-positive ESBL-negative Escherichia coli E437; format: functional
Klebsiella pneumoniae [19] = experiment: Ratio of mutant prevention concentration to minimum Inhibitory concentration for beta-lactamase-negative Klebsiella pneumoniae E419; format: functional
Klebsiella pneumoniae [20] = experiment: Ratio of mutant prevention concentration to minimum Inhibitory concentration for beta-lactamase-positive ESBL-positive Klebsiella pneumoniae E453; format: functional
Klebsiella pneumoniae [21] = experiment: Ratio of mutant prevention concentration to minimum Inhibitory concentration for beta-lactamase-negative Klebsiella pneumoniae E361; format: functional
Escherichia coli [22] = experiment: Ratio of mutant prevention concentration to minimum Inhibitory concentration for beta-lactamase-negative Escherichia coli E425; format: functional
Escherichia coli [23] = experiment: Ratio of mutant prevention concentration to minimum Inhibitory concentration for beta-lactamase-positive ESBL-positive Escherichia coli E458; format: functional
Escherichia coli [24] = experiment: Antibacterial activity against beta-lactamase-negative Escherichia coli E348 assessed as mutant prevention concentration after overnight incubation; format: functional
Escherichia coli [25] = experiment: Antibacterial activity against beta-lactamase-negative Escherichia coli E346 incubated up to 7 days by agar dilution method; format: functional; details: E346, 168 h
Klebsiella pneumoniae [26] = experiment: Antibacterial activity against beta-lactamase-positive ESBL-negative Klebsiella pneumoniae E474 incubated up to 7 days by agar dilution method; format: functional; details: E474, 168 h
Klebsiella pneumoniae [27] = experiment: Ratio of mutant prevention concentration to minimum Inhibitory concentration for beta-lactamase-negative Klebsiella pneumoniae E418; format: functional
Escherichia coli [28] = experiment: Antibacterial activity against beta-lactamase-negative Escherichia coli E344 incubated up to 7 days by agar dilution method; format: functional; details: E344, 168 h
Klebsiella pneumoniae [29] = experiment: Ratio of mutant prevention concentration to minimum Inhibitory concentration for beta-lactamase-positive ESBL-negative Klebsiella pneumoniae E473; format: functional
Escherichia coli [30] = experiment: Ratio of mutant prevention concentration to minimum Inhibitory concentration for beta-lactamase-positive ESBL-positive Escherichia coli E446; format: functional
Pseudomonas aeruginosa [31] = experiment: Antibacterial activity against Pseudomonas aeruginosa P356 incubated up to 7 days by agar dilution method; format: functional; details: P356, 168 h
Acinetobacter baumannii [32] = experiment: Antibacterial activity against Acinetobacter baumannii A892 assessed as mutant prevention concentration after overnight incubation; format: functional
Acinetobacter baumannii [33] = experiment: Antibacterial activity against Acinetobacter baumannii A885 incubated up to 7 days by agar dilution method; format: functional; details: A885, 168 h
Pseudomonas aeruginosa [34] = experiment: Antibacterial activity against Pseudomonas aeruginosa P328 incubated up to 7 days by agar dilution method; format: functional; details: P328, 168 h
Acinetobacter baumannii [35] = experiment: Antibacterial activity against Acinetobacter baumannii A908 incubated for 24 h by agar dilution method; details: A908, 24 h
Pseudomonas aeruginosa [36] = experiment: Antibacterial activity against Pseudomonas aeruginosa P365 incubated up to 7 days by agar dilution method; format: functional; details: P365, 168 h
Acinetobacter baumannii [37] = experiment: Antibacterial activity against Acinetobacter baumannii A928 incubated for 24 h by agar dilution method; details: A928, 24 h
Pseudomonas aeruginosa [38] = experiment: Antibacterial activity against Pseudomonas aeruginosa P337 incubated up to 7 days by agar dilution method; format: functional; details: P337, 168 h
Pseudomonas aeruginosa [39] = experiment: Antibacterial activity against Pseudomonas aeruginosa P322 assessed as mutant prevention concentration after overnight incubation; format: functional
Acinetobacter baumannii [40] = experiment: Antibacterial activity against Acinetobacter baumannii A864 incubated for 24 hrs by agar dilution method; details: A864, 24 h
Pseudomonas aeruginosa [41] = experiment: Antibacterial activity against Pseudomonas aeruginosa P327 incubated up to 7 days by agar dilution method; format: functional; details: P327, 168 h
Pseudomonas aeruginosa [42] = experiment: Antibacterial activity against Pseudomonas aeruginosa P349 incubated up to 7 days by agar dilution method; format: functional; details: P349, 168 h
Pseudomonas aeruginosa [43] = experiment: Antibacterial activity against Pseudomonas aeruginosa P338 incubated up to 7 days by agar dilution method; format: functional; details: P338, 168 h
Acinetobacter baumannii [44] = experiment: Antibacterial activity against Acinetobacter baumannii A910 incubated for 24 h by agar dilution method; details: A910, 24 h
Acinetobacter baumannii [45] = experiment: Antibacterial activity against Acinetobacter baumannii A897 incubated up to 7 days by agar dilution method; format: functional; details: A897, 168 h
Acinetobacter baumannii [46] = experiment: Antibacterial activity against Acinetobacter baumannii A884 incubated for 24 h by agar dilution method; details: A884, 24 h
Pseudomonas aeruginosa [47] = experiment: Antibacterial activity against Pseudomonas aeruginosa P340 incubated up to 7 days by agar dilution method; format: functional; details: P340, 168 h
Pseudomonas aeruginosa [48] = experiment: Antibacterial activity against Pseudomonas aeruginosa P363 incubated up to 7 days by agar dilution method; format: functional; details: P363, 168 h
Acinetobacter baumannii [49] = experiment: Antibacterial activity against Acinetobacter baumannii A865 incubated for 24 h by agar dilution method; details: A865, 24 h

C[C@@H](O)[C@H]1C(=O)N2C(C(=O)O)=C(S[C@@H]3CN[C@H](C(=O)Nc4cccc(C(=O)O)c4)C3)[C@H](C)[C@H]12
Ratio (Klebsiella pneumoniae [1]): 4
Ratio (Escherichia coli [2]): 2
MIC (Escherichia coli [3]): 0.016 µg/mL (≈ 0.0336 µM)
Ratio (Escherichia coli [4]): 2
Ratio (Escherichia coli [5]): 4
Ratio (Klebsiella pneumoniae [6]): 4
Ratio (Klebsiella pneumoniae [7]): 2
Ratio (Escherichia coli [8]): >16
MPC (Escherichia coli [9]): 0.06 µg/mL
MIC (Klebsiella pneumoniae [10]): 16 µg/mL (≈ 33.6 µM)
Ratio (Escherichia coli [11]): 8
Ratio (Escherichia coli [12]): 4
Ratio (Klebsiella pneumoniae [13]): 4
Ratio (Escherichia coli [14]): 16
Ratio (Klebsiella pneumoniae [15]): 4
Ratio (Klebsiella pneumoniae [16]): 4
Ratio (Klebsiella pneumoniae [17]): 8
Ratio (Escherichia coli [18]): 2
Ratio (Klebsiella pneumoniae [19]): 2
Ratio (Klebsiella pneumoniae [20]): 2
Ratio (Klebsiella pneumoniae [21]): 4
Ratio (Escherichia coli [22]): 4
Ratio (Escherichia coli [23]): 16
MPC (Escherichia coli [24]): 0.03 µg/mL
MIC (Escherichia coli [25]): 0.008 µg/mL (≈ 0.0168 µM)
MIC (Klebsiella pneumoniae [26]): 4 µg/mL (≈ 8.41 µM)
Ratio (Klebsiella pneumoniae [27]): 2
MIC (Escherichia coli [28]): 0.008 µg/mL (≈ 0.0168 µM)
Ratio (Klebsiella pneumoniae [29]): 4
Ratio (Escherichia coli [30]): 4

C[C@@H](O)[C@H]1C(=O)N2C(C(=O)O)=C(S[C@@H]3CN[C@H](CNS(N)(=O)=O)C3)[C@H](C)[C@H]12 [DORIPENEM]
Ratio (Klebsiella pneumoniae [1]): >16
Ratio (Escherichia coli [2]): 2
MIC (Escherichia coli [3]): 0.03 µg/mL (≈ 0.0713 µM)
Ratio (Escherichia coli [4]): 4
MIC (Pseudomonas aeruginosa [31]): 0.25 µg/mL (≈ 0.595 µM)
Ratio (Escherichia coli [5]): 2
MPC (Acinetobacter baumannii [32]): 64 µg/mL
Ratio (Klebsiella pneumoniae [6]): 2
Ratio (Klebsiella pneumoniae [7]): 8
Ratio (Escherichia coli [8]): 16
MIC (Acinetobacter baumannii [33]): 4 µg/mL (≈ 9.51 µM)
MIC (Pseudomonas aeruginosa [34]): 2 µg/mL (≈ 4.76 µM)
MPC (Escherichia coli [9]): 0.06 µg/mL
MIC (Acinetobacter baumannii [35]): 0.5 µg/mL (≈ 1.19 µM)
MIC (Pseudomonas aeruginosa [36]): 0.5 µg/mL (≈ 1.19 µM)
MIC (Klebsiella pneumoniae [10]): 4 µg/mL (≈ 9.51 µM)
Ratio (Escherichia coli [11]): 4
Ratio (Escherichia coli [12]): 2
MIC (Acinetobacter baumannii [37]): 0.5 µg/mL (≈ 1.19 µM)
MIC (Pseudomonas aeruginosa [38]): 1 µg/mL (≈ 2.38 µM)
MPC (Pseudomonas aeruginosa [39]): 4 µg/mL
Ratio (Klebsiella pneumoniae [13]): 2
Ratio (Escherichia coli [14]): 4
MIC (Acinetobacter baumannii [40]): 8 µg/mL (≈ 19 µM)
Ratio (Klebsiella pneumoniae [15]): 4
Ratio (Klebsiella pneumoniae [16]): >16
Ratio (Klebsiella pneumoniae [17]): >16
MIC (Pseudomonas aeruginosa [41]): 0.25 µg/mL (≈ 0.595 µM)
Ratio (Escherichia coli [18]): 2
Ratio (Klebsiella pneumoniae [19]): 2
MIC (Pseudomonas aeruginosa [42]): 0.5 µg/mL (≈ 1.19 µM)
MIC (Pseudomonas aeruginosa [43]): 0.25 µg/mL (≈ 0.595 µM)
MIC (Acinetobacter baumannii [44]): 2 µg/mL (≈ 4.76 µM)
Ratio (Klebsiella pneumoniae [20]): 2
Ratio (Klebsiella pneumoniae [21]): 2
MIC (Acinetobacter baumannii [45]): 0.5 µg/mL (≈ 1.19 µM)
Ratio (Escherichia coli [22]): 2
Ratio (Escherichia coli [23]): 2
MPC (Escherichia coli [24]): 0.06 µg/mL
MIC (Escherichia coli [25]): 0.03 µg/mL (≈ 0.0713 µM)
MIC (Klebsiella pneumoniae [26]): 2 µg/mL (≈ 4.76 µM)
Ratio (Klebsiella pneumoniae [27]): 2
MIC (Acinetobacter baumannii [46]): 2 µg/mL (≈ 4.76 µM)
MIC (Pseudomonas aeruginosa [47]): 0.125 µg/mL (≈ 0.297 µM)
MIC (Escherichia coli [28]): 0.03 µg/mL (≈ 0.0713 µM)
MIC (Pseudomonas aeruginosa [48]): 0.25 µg/mL (≈ 0.595 µM)
Ratio (Klebsiella pneumoniae [29]): 4
MIC (Acinetobacter baumannii [49]): 8 µg/mL (≈ 19 µM)
Ratio (Escherichia coli [30]): 2

C[C@@H](O)[C@H]1C(=O)N2C(C(=O)O)=C(S[C@@H]3CN[C@H](C(=O)N(C)C)C3)[C@H](C)[C@H]12 [MEROPENEM]
MIC (Pseudomonas aeruginosa [31]): 0.5 µg/mL (≈ 1.3 µM)
MIC (Acinetobacter baumannii [33]): 2 µg/mL (≈ 5.22 µM)
MIC (Pseudomonas aeruginosa [34]): 2 µg/mL (≈ 5.22 µM)
MPC (Escherichia coli [9]): 0.06 µg/mL
MIC (Acinetobacter baumannii [35]): 1 µg/mL (≈ 2.61 µM)
MIC (Pseudomonas aeruginosa [36]): 1 µg/mL (≈ 2.61 µM)
MIC (Acinetobacter baumannii [37]): 1 µg/mL (≈ 2.61 µM)
MIC (Pseudomonas aeruginosa [38]): 1 µg/mL (≈ 2.61 µM)
MPC (Pseudomonas aeruginosa [39]): 16 µg/mL
MIC (Acinetobacter baumannii [40]): 8 µg/mL (≈ 20.9 µM)
MIC (Pseudomonas aeruginosa [41]): 0.25 µg/mL (≈ 0.652 µM)
MIC (Pseudomonas aeruginosa [42]): 1 µg/mL (≈ 2.61 µM)
MIC (Pseudomonas aeruginosa [43]): 0.25 µg/mL (≈ 0.652 µM)
MIC (Acinetobacter baumannii [44]): 1 µg/mL (≈ 2.61 µM)
MIC (Acinetobacter baumannii [45]): 0.5 µg/mL (≈ 1.3 µM)
MPC (Escherichia coli [24]): 0.06 µg/mL
MIC (Klebsiella pneumoniae [26]): 4 µg/mL (≈ 10.4 µM)
MIC (Acinetobacter baumannii [46]): 4 µg/mL (≈ 10.4 µM)
MIC (Pseudomonas aeruginosa [47]): 0.25 µg/mL (≈ 0.652 µM)
MIC (Pseudomonas aeruginosa [48]): 0.5 µg/mL (≈ 1.3 µM)
MIC (Acinetobacter baumannii [49]): 8 µg/mL (≈ 20.9 µM)

C[C@@H](O)[C@H]1C(=O)N2C(C(=O)O)=C(SCCNC=N)C[C@H]12 [IMIPENEM ANHYDROUS]
MPC (Acinetobacter baumannii [32]): 64 µg/mL
MPC (Escherichia coli [9]): 0.5 µg/mL
MPC (Pseudomonas aeruginosa [39]): 32 µg/mL
MPC (Escherichia coli [24]): 0.5 µg/mL
